Experimental data as given in patent publication US7378417B2, “Pyrazolo-pyrimidine derivatives” (Hoffmann-La Roche Inc., priority 2004, dated 2008).

Assays:
rat mGlu2 receptor = target: T1, rat mGlu2 receptor (Rattus norvegicus, UniProt P31421); test: [3H]-LY354740 binding on mGlu2 transfected CHO cell membranes; conditions: displacement of 10 nM [3H]-LY354740, CHO cell membranes, room temperature, 1 hour
T1 construct: expressed in transfected cells; host or cells: CHO cells, stably transfected with pcD1mGR2 (G-418 selection); membranes used
Excerpt: [^3H]-LY354740 Binding on mGlu2 Transfected CHO Cell Membranes. Transfection and Cell Culture
cDNA encoding the rat mGlu2 receptor protein in pBluescript II was subcloned into the eukaryotic expression vector pcDNA I-amp from Invitrogen Ltd (Paisley, UK). This vector construct (pcD1mGR2) was co-transfected with a psvNeo plasmid encoding the gene for neomycin resistance, into CHO cells by a modified calcium phosphate method described by Chen & Okayama (1988). The cells were maintained in Dulbecco's Modified Eagle medium with reduced L-glutamine (2 mM final concentration) and 10% dialysed foetal calf serum from Gibco-Invitrogen (Carlsbad, Calif., USA). Selection was made in the presence of G-418 (1000 ug/ml final) and […]. Clones were identified by reverse transcription of 5 μg total RNA, followed by PCR using mGlu2 receptor specific primers 5′-[…]-3′ and 5′-[…]-3′ in 60 mM Tris HCl (pH 10), 15 mM (NH4)2SO4, 2 mM MgCl2, 25 units/ml Taq Polymerase with 30 cycles annealing at 60° C. for 1 min., extention at 72° C. for 30 s, and 1 min. 95° C. denaturation.
Cells, cultured as above, were harvested and washed three times with cold PBS and frozen at −80° C. The pellet was resuspended in cold 20 mM HEPES-NaOH buffer containing 10 mM EDTA (pH 7.4), and homogenised with a polytron (Kinematica, AG, Littau, Switzerland) for 10 s at 10 000 rpm. After centrifugation for 30 min. at 4° C., the pellet was washed once with the same buffer, and once with cold 20 mM HEPES-NaOH buffer containing 0.1 mM EDTA, (pH 7.4). Protein content was measured using the micro BCA method from Pierce-Perbio (Rockford, Ill., USA) using bovine serum albumin as standard.
After thawing, the membranes were resuspended in cold 50 mM Tris-HCl buffer containing 2 mM MgCl2 (pH 7) (binding buffer). The final concentration of the membranes in the assays was 25 μg protein/ml. Inhibition experiments were performed with membranes incubated with 10 nM [^3H]-LY354740 at room temperature, for 1 hour, in presence of various concentrations of the compound to be tested. Following the incubations, membranes were filtered onto Whatmann GF/B glass fiber filters and washed 5 times with cold binding buffer. Non specific binding was measured in the presence of 10 μM DCG IV. After transfer of the filters into plastic vials containing 10 ml of Ultima-gold scintillation fluid from Perkin-Elmer (Boston, Mass., USA), the radioactivity was measured by liquid scintillation in a Tri-Carb 2500 TR counter (Packard, Zürich, Switzerland).
The inhibition curves were fitted with a four parameter logistic equation giving IC50 values, and Hill coefficients.

T1 sequence (P31421 19-872): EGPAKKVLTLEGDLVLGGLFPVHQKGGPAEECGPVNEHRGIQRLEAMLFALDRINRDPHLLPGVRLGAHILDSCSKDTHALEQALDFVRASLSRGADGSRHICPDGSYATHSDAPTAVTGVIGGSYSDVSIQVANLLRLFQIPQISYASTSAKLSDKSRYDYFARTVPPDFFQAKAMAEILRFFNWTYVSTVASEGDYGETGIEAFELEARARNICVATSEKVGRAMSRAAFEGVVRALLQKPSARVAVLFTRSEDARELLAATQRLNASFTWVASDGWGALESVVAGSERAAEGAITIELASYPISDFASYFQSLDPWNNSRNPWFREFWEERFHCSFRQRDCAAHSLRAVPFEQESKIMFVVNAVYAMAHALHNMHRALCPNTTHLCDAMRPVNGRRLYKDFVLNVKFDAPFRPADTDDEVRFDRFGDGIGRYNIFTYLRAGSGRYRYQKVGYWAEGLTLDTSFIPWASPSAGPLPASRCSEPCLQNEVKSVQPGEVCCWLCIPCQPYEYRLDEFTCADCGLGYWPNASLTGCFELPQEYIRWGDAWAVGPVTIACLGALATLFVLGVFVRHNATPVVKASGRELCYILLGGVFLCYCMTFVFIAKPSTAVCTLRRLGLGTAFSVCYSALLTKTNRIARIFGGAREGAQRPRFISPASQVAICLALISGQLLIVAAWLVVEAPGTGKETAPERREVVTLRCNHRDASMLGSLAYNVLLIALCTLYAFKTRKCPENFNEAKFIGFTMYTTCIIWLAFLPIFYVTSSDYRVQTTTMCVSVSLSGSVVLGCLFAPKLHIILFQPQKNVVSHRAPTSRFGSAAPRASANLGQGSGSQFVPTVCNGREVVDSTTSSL

Row | melting point | Ki (rat mGlu2 receptor) | SMILES
1 | 238 °C |  | O=C(Nc1cccc(S(=O)(=O)NCC2CC2)c1)c1cnn2c(C(F)F)cc(-c3ccc(C(F)(F)F)cc3)nc12 [Example 73, 7-Difluoromethyl-5-(4-trifluoromethyl-phenyl)-pyrazolo[1,5-a]pyrimidine-3-carboxylic acid [3-(cyclopropylmethyl-sulfamoyl)-phenyl]-amide]
2 | 231 °C |  | O=C(Nc1cccc(S(=O)(=O)NCCO)c1)c1cnn2c(C(F)F)cc(-c3ccc(C(F)(F)F)cc3)nc12 [Example 83, 7-Difluoromethyl-5-(4-trifluoromethyl-phenyl)-pyrazolo[1,5-a]pyrimidine-3-carboxylic acid [3-(2-hydroxy-ethylsulfamoyl)-phenyl]-amide]
3 | 205 °C |  | O=C(Nc1cccc(S(=O)(=O)CCO)c1)c1cnn2c(C(F)F)cc(-c3ccc(C(F)(F)F)cc3)nc12 [Example 90, 7-Difluoromethyl-5-(4-trifluoromethyl-phenyl)-pyrazolo[1,5-a]pyrimidine-3-carboxylic acid [3-(2-hydroxy-ethanesulfonyl)-phenyl]-amide]
4 | 184 °C | 0.007 µM | CN(C)CCNS(=O)(=O)c1cccc(NC(=O)c2cnn3c(C(F)F)cc(-c4ccc(C(F)(F)F)cc4)nc23)c1 [Example 144, 7-Difluoromethyl-5-(4-trifluoromethyl-phenyl)-pyrazolo[1,5-a]pyrimidine-3-carboxylic acid[3-(2-dimethylamino-ethylsulfamoyl)-phenyl]-amide]

The remaining lines, values behind:

Row | SMILES | melting point | Ki (rat mGlu2 receptor)
5 | O=C(Nc1cccc(S(=O)(=O)N2CCOCC2)c1)c1cnn2c(C(F)(F)F)cc(-c3ccc(C(F)(F)F)cc3)nc12 [Example 1, 7-Trifluoromethyl-5-(4-trifluoromethyl-phenyl)-pyrazolo[1,5-a]pyrimidine-3-carboxylic acid[3-(morpholine-4-sulfonyl)-phenyl]-amide] | 233 °C | 0.03 µM
6 | O=C(Nc1cccc(S(=O)(=O)NCC(F)(F)F)c1)c1cnn2c(C(F)F)cc(-c3ccc(C(F)(F)F)cc3)nc12 [Example 52, 7-Difluoromethyl-5-(4-trifluoromethyl-phenyl)-pyrazolo[1,5-a]pyrimidine-3-carboxylic acid [3-(2,2,2-trifluoro-ethylsulfamoyl)-phenyl]-amide] | 257 °C | 
7 | O=C(Nc1cccc(S(=O)(=O)Nc2ccccc2)c1)c1cnn2c(C(F)F)cc(-c3ccc(C(F)(F)F)cc3)nc12 [Example 74, 7-Difluoromethyl-5-(4-trifluoromethyl-phenyl)-pyrazolo[1,5-a]pyrimidine-3-carboxylic acid(3-phenylsulfamoyl-phenyl)-amide] | 228 °C | 0.067 µM
8 | NS(=O)(=O)c1cccc(NC(=O)c2cnn3c(C(F)F)cc(-c4ccc(C(F)(F)F)c(OCC(F)(F)F)c4)nc23)c1 [Example 79, 7-Difluoromethyl-5-[3-(2,2,2-trifluoro-ethoxy)-4-trifluoromethyl-phenyl]-pyrazolo[1,5-a]pyrimidine-3-carboxylic acid(3-sulfamoyl-phenyl)-amide] | 241 °C | 0.011 µM
9 | O=C(Nc1cccc(S(=O)(=O)NCc2ccncc2)c1)c1cnn2c(C(F)F)cc(-c3ccc(C(F)(F)F)cc3)nc12 [Example 88, 7-Difluoromethyl-5-(4-trifluoromethyl-phenyl)-pyrazolo[1,5-a]pyrimidine-3-carboxylic acid {3-[(pyridin-4-ylmethyl)-sulfamoyl]-phenyl}-amide] | 221 °C | 0.015 µM
10 | O=C(Nc1cccc(S(=O)(=O)NCc2cccnc2)c1)c1cnn2c(C(F)F)cc(-c3ccc(C(F)(F)F)cc3)nc12 [Example 106, 7-Difluoromethyl-5-(4-trifluoromethyl-phenyl)-pyrazolo[1,5-a]pyrimidine-3-carboxylic acid {3-[(pyridin-3-ylmethyl)-sulfamoyl]-phenyl}-amide] | 256 °C | 
